Results on two sequences are retold here after patent US20110288007A1 (priority 2008, published 2011).

Some test systems named below: B. thailandensis E264; F. tularensis LVS; F. novicida U112; B. cepacia J2540.
What all share (type): cell-based
Holding throughout (set-up): key: —: No effect (i.e. no significant difference between control [culture with no peptide] and culture with peptide); *: ~1 log effect (i.e. culture with peptide that's growth was ~1 log less than control); **: 1-2 log effect; ***: 2-4 log effect; ****: >4 log effect; “”: “Immediate effect” (i.e. loss of growth by at least 1 log compared to control immediately on addition of peptide [T = 0]

In test [1] the test system is Y. pseudotuberculosis IP32593.
Another test concerns S. aureus ATCC29213. Conditions: peptide 102 μg/mL, reduction of number of bacteria vs control.
Test [2] has as its system Y. pseudotuberculosis YPIII.
Test [3] has as its system B. anthracis Vegetative UM23-Cl2.

As for GIGKFLHSAKKFGKAFVGEIMNS [Magainin II], the “Effect of peptides after 4 hours incubation with bacteria, B. thailandensis E264” value with B. thailandensis E264 is on record as “—”. For the same sequence, the “Effect of peptides after 4 hours incubation with bacteria, F. tularensis LVS” value in the test with F. tularensis LVS is on record as “—”. In addition, the “Effect of peptides after 4 hours incubation with bacteria, F. novicida U112” value in the test on F. novicida U112 is reported as “—”. Also, the “Effect of peptides after 4 hours incubation with bacteria, Y. pseudotuberculosis IP32593” value in test [1] is listed as “—”. Besides, the “Effect of peptides after 4 hours incubation with bacteria, S. aureus ATCC29213” value in the test on S. aureus ATCC29213 was “**** (>4 log effect)”.

Consider “LLGDFFRKSKEKIGKEFKRIVQRIKDFLRNLVPRTES [LL-37]”, for which the “Effect of peptides after 4 hours incubation with bacteria, B. thailandensis E264” value with B. thailandensis E264 is “—”. For the same sequence, the “Effect of peptides after 4 hours incubation with bacteria, B. cepacia J2540” value with B. cepacia J2540 is “—”. Further, the “Effect of peptides after 4 hours incubation with bacteria, Y. pseudotuberculosis YPIII” value in test [2] is recorded as “—”. Further, in test [3], the “Effect of peptides after 4 hours incubation with bacteria, B. anthracis Vegetative UM23-Cl2” value is listed as “—”. In the test with F. tularensis LVS, the “Effect of peptides after 4 hours incubation with bacteria, F. tularensis LVS” value is “—”. Besides, the “Effect of peptides after 4 hours incubation with bacteria, F. novicida U112” value with F. novicida U112 is “—”. Moreover, in test [1], the “Effect of peptides after 4 hours incubation with bacteria, Y. pseudotuberculosis IP32593” value is “—”. The “Effect of peptides after 4 hours incubation with bacteria, S. aureus ATCC29213” value in the test on S. aureus ATCC29213 is on record as “—”.
